Data from PMC2683906 (Chemical research in toxicology, 2009).
Blank lines part the entries; values can stand above or below the compound they belong to.

Legend:
globin = details: rats and mice exposed to 1,3-[2,3-14C]-butadiene; cited from earlier work
[1] = cited from earlier work
[2] = 6.25 to 1000 ppm, mice and rats; cited from earlier work
[3] = cited from earlier work; remark: listed apart in the source
[4] = rodents given BDD or BMO; cited from earlier work
[5] = buffer, pH 9
[6] = buffer, pH 7.4
[7] = buffer, pH 9; remark: listed apart in the source

SMILES: C=[14CH][14CH]=C [1,3-[2,3-^14C]-butadiene]
Total globin radioactivity characterized as trihydroxybutyl adducts (globin): 1−2%

SMILES: C=CC=C [BD, 1,3-Butadiene]
International Agency for Research on Cancer classification [1]: are carcinogenic to humans
National Toxicology Program classification [1]: known to be a human carcinogen
Tumor formation after long-term inhalation exposure [2]: tumor formation at multiple organ sites

SMILES: C=CC(O)CO (centres unmarked) [BDD, 3-butene-1,2-diol]
HMVK-derived mercapturates as share of the administered BDD dose [3]: 4−8%
Amount of BDD detected in the urine [4]: < 5%

Estimated half-life of HMVK, HMVK + NAL [5]: 45 min
Time at which all of HMVK was consumed (HMVK 3 mM, NAC 6 mM, pH 7.4, 37 °C): 0.5 h
Estimated half-life of HMVK, HMVK + NAC (buffer, pH 7.4): instantaneous
Estimated half-life of HMVK, HMVK + L-valinamide [7]: 13.5 min
SMILES: C=CC(=O)CO [HMVK, hydroxymethylvinyl ketone]
Half-life of HMVK in the absence of nucleophilic amino acids [6]: a Half-life of HMVK when incubated at a concentration of 3 mM at pH 7.4, 37 °C in the absence of nucleophilic amino acids was determined to be 710 min. ND, not determined. Half-lives were estimated assuming pseudo-first order kinetics. Data is representative of typical experimental values.
